{"source": "patent US20220347158A1", "about": "“Methods of Treating Conditions Related to the S1P1 Receptor” (Arena Pharmaceuticals, Inc., priority 2019, published 2022)", "key": {"[1]": {"system": "peripheral blood lymphocytes", "assay": "Phase 1, single ascending dose clinical trial in healthy subjects", "type": "in vivo, human"}, "[2]": {"system": "peripheral lymphocyte counts", "assay": "Phase 1, multiple ascending dose clinical trial in healthy subjects", "type": "in vivo, human", "description": "[…] […] After treatment with Compound 1, lymphocyte reductions of 46% and 65% for Day 8 and Day 15, respectively, were observed."}, "[3]": {"system": "lymphocyte", "type": "in vivo, human", "protocol": "In another Phase 1 study, 30 adult subjects received 2 mg of Compound 1 qd (Days 1 to 7), then 3 mg of Compound 1 qd (Days 8 to 12), and finally 4 mg of Compound 1 qd (Days 13 to 14). […] After treatment with Compound 1, lymphocyte reductions of 46% and 65% for Day 8 and Day 15, respectively, were observed."}, "[4]": {"system": "peripheral lymphocyte counts", "assay": "Phase 1 studies taken together (safety, tolerability, lymphocyte counts)", "type": "in vivo, human", "protocol": "Compound 1, or a pharmaceutically acceptable salt, solvate, or hydrate thereof, is an orally administered, selective, synthetic sphingosine 1-phosphate (S1P) receptor 1, 4, 5 modulator. […] Its safety and tolerability have been evaluated in Phase 1 studies with healthy adult subjects at single doses up to 5 mg and repeated doses up to 4 mg once daily (“QD” or “qd”). […] In another Phase 1 study, 30 adult subjects received 2 mg of Compound 1 qd (Days 1 to 7), then 3 mg of Compound 1 qd (Days 8 to 12), and finally 4 mg of Compound 1 qd (Days 13 to 14). […] After treatment with Compound 1, lymphocyte reductions of 46% and 65% for Day 8 and Day 15, respectively, were observed."}, "[5]": {"system": "UC patients", "assay": "Phase 2 dose-ranging study in UC patients", "type": "in vivo, human", "description": "Further, while UC and CD have overlapping features, there are differences in pathophysiology, disease location, and extent of disease that may dictate different doses for the treatment of UC and CD. Described herein is the elucidation of safe and efficacious dosing of Compound 1 for the treatment of CD.\n(§1) Compound 1, or a pharmaceutically acceptable salt, solvate, or hydrate thereof, is an orally administered, selective, synthetic sphingosine 1-phosphate (S1P) receptor 1, 4, 5 modulator. […] Its safety and tolerability have been evaluated in Phase 1 studies with healthy adult subjects at single doses up to 5 mg and repeated doses up to 4 mg once daily (“QD” or “qd”)."}, "[6]": {"system": "UC patients", "assay": "Open-label extension study after the Phase 2 UC study", "type": "in vivo, human", "details": "up to 46 weeks", "protocol": "as §1"}, "[7]": {"system": "subjects with CD", "details": "Phase 2; cited from earlier work"}}, "note": "Read-outs that look alike come from different tables or passages of the source."}
{"compound": "O=C(O)C[C@H]1CCc2c1[nH]c1ccc(OCc3ccc(C4CCCC4)c(C(F)(F)F)c3)cc21", "note": "[Compound 1, (R)-2-(7-(4-cyclopentyl-3-(trifluoromethyl)benzyloxy) -1,2,3,4-tetrahydrocyclopenta[b]indol-3-yl)acetic acid]", "values": [{"measurement": "decline in the absolute number of peripheral blood lymphocytes", "setting": "[1]; single 3 mg and 5 mg doses", "value": "clear dose-responsive decline"}, {"measurement": "declines in peripheral blood lymphocytes", "setting": "[1]; single doses up to 1 mg", "value": "only modest declines"}, {"measurement": "safety and tolerability", "setting": "[2]; up to 21 days of dosing with 2 mg or 3 mg", "value": "safe and well-tolerated"}, {"measurement": "peripheral lymphocyte counts", "setting": "[2]; up to 21 days of dosing, 2 mg and 3 mg", "value": "reduced peripheral lymphocyte counts"}, {"measurement": "lymphocyte reductions", "setting": "[3]; Day 8 (after 2 mg qd Days 1 to 7)", "value": 46, "unit": "%"}, {"measurement": "lymphocyte reductions", "setting": "[3]; Day 15 (after 2 mg Days 1 to 7, 3 mg Days 8 to 12, 4 mg Days 13 to 14)", "value": 65, "unit": "%"}, {"measurement": "reductions in peripheral lymphocyte counts", "setting": "[4]; Phase 1 studies together, 2 mg and 3 mg", "value": "significant reductions"}, {"measurement": "tolerability and safety", "setting": "[4]; Phase 1 studies together, doses up to 4 mg", "value": "well-tolerated with no significant safety findings"}, {"measurement": "safety and tolerability", "setting": "[4]; adult subjects treated at various doses, Phase 1 single doses up to 5 mg, repeated doses up to 4 mg once daily", "value": "safe and well-tolerated"}, {"measurement": "endoscopic and symptomatic improvements versus placebo", "setting": "[5]; UC patients, 2 mg QD for 12 weeks", "value": "clinically meaningful and statistically significant endoscopic and symptomatic improvements"}, {"measurement": "efficacy over placebo", "setting": "[5]; subjects with UC, 2 mg", "value": "improved efficacy"}, {"measurement": "beneficial effects in open-label extension", "setting": "[6]", "value": "Sustained beneficial effects"}]}
{"compound": "CCCCCCCOc1ccc(CCC(N)(CO)CO)cc1C(F)(F)F", "note": "[amiselimod]", "values": [{"measurement": "efficacy over placebo", "setting": "[7]", "value": "did not result in improved efficacy over placebo"}]}
